In patent US9157088B2, “Transferases, epimerases, polynucleotides encoding these and uses thereof” (priority 2007, dated 2015):

How the values were obtained:
[1] = system: L-Galactose dehydrogenase; conditions: cited from earlier work
[2] = molecular target: kiwifruit GDP-L-Galactose Guanyltransferase EST 319998 (Actinidia chinensis, UniProt A0A2R6QD99); experiment: Continuous coupled assay of transferase activity with guanyl acceptors; conditions: sugar phosphate as guanyl acceptor, epimerase generated substrate
kiwifruit GDP-L-Galactose Guanyltransferase EST 319998, sequence (A0A2R6QD99 entry or part of it): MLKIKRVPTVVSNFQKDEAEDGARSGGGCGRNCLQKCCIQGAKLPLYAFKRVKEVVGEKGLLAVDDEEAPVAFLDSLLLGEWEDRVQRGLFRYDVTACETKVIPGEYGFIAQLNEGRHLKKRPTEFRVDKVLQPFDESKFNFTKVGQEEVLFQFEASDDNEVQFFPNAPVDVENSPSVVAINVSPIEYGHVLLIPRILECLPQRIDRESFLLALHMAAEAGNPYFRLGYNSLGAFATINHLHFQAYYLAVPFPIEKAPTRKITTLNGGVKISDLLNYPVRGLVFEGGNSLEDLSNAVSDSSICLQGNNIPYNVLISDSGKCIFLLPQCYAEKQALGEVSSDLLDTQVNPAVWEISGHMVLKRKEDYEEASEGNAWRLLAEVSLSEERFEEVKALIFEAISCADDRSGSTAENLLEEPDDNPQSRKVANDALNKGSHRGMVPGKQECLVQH
Description: Expression of genes in E. coli. The EST 319998 from young fruit of Actinidia chinensis and At4g26850 were each cloned into pET30A (Novagene, USA), their sequence checked and expressed in E. coli. The N terminal His6 tag was used to purify the protein. An empty vector control was expressed and purified in parallel. Techniques were essentially as described earlier (Laing et al., 2004).
L-Galactose dehydrogenase (Gen Bank accession AA018639 (EST 56121), 1.5 ug/assay) was cloned from an EST derived from an A. deliciosa (kiwifruit) shoot bud library with a maltose binding protein presequence and assayed as described previously (Laing et al., 2004). L-Galactose-1-Phosphate phosphatase was cloned from Arabidopsis thaliana (At3g02870, 3.1 ug/assay) and assayed as described (Laing et al., 2004). GDP-D-Mannose 3′,5′-Epimerase (198296) was cloned from dormant kiwifruit (A. deliciosa) buds three days after hydrogen cyanamide treatment and assayed as described (Wolucka et al., 2001). The former two enzymes are highly specific as to their substrates (Laing et al., 2004; Laing et al., 2004).
The assay for GDP-L-Galactose-1-Phosphate Guanyltransferase was run in 20 mM TrisCl, pH 8.0, GDP-L-Galactose, with 1 mM D-Mannose-1-Phosphate. […] In the latter case, 0.21 mg of epimerase was incubated with GDP-D-Mannose in 20 mM Tris Cl pH 8 in a total volume of 400 μL (see Wolucka et al., 2001) for 30 minutes at 20 C and then used directly in the assay at a 1 to 20 dilution. Assays were either terminated after 10 minutes by heating to 100 C for three minutes, or directly coupled to the phosphatase and L-Galactose dehydrogenase to measure product formation during the assay. Heat terminated assays were cooled on ice, centrifuged to remove precipitated protein and L-Galactose assayed using the coupling enzymes described above (see also (Laing et al., 2004)).
The applicants used two assays to characterise the enzyme, using two sources of the substrate GDP-L-Galactose. The first assay used the E. coli expressed coupling enzymes L-Galactose-1-Phosphate phosphatase and L-Galactose dehydrogenase. […] The applicants either measured the product formed by adding the coupling enzymes in the assay and measuring the time course of NADH formed, or by stopping the reaction after 10 minutes by boiling for 3 minutes and centrifuging. To this latter fixed time assay, the applicants then either adding coupling enzymes to measure L-Galactose production or using the LCMS to measure the products. The LCMS was used only to confirm the results of the coupled enzyme reaction and to measure the reverse reaction.

[3] = molecular target: T1, L-Galactose-1-Phosphate phosphatase (Arabidopsis thaliana, UniProt Q9M8S8); conditions: cited from earlier work
T1 construct: made in house; host or cells: E. coli
T1 sequence (Q9M8S8 1-271): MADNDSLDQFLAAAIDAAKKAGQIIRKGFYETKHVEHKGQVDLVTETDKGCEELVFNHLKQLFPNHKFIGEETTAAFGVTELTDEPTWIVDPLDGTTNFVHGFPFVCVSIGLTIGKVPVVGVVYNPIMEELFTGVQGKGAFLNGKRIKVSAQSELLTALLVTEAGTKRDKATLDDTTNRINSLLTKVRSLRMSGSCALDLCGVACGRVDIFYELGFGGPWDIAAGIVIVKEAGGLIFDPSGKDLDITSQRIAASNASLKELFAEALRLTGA

[4] = Transferase activity of E. coli expressed enzymes (coupled reaction and LCMS); type: biochemical; conditions: enzyme expressed in E. coli, His tag purified
Description: Expression of genes in E. coli. The EST 319998 from young fruit of Actinidia chinensis and At4g26850 were each cloned into pET30A (Novagene, USA), their sequence checked and expressed in E. coli. The N terminal His6 tag was used to purify the protein. An empty vector control was expressed and purified in parallel. Techniques were essentially as described earlier (Laing et al., 2004). In much of this work the His-protein was further purified on a 5 mL HiTrap Q FF column (GE Healthcare), and identical results were obtained with both preparations.
The assay for GDP-L-Galactose-1-Phosphate Guanyltransferase was run in 20 mM TrisCl, pH 8.0, GDP-L-Galactose, with 1 mM D-Mannose-1-Phosphate. GDP-L-Galactose was either used directly from the Glycoteam product (in which case high backgrounds were observed due to contaminating L-Galactose-1-Phosphate) or GDP-L-Galactose was generated using the epimerase. In the latter case, 0.21 mg of epimerase was incubated with GDP-D-Mannose in 20 mM Tris Cl pH 8 in a total volume of 400 μL (see Wolucka et al., 2001) for 30 minutes at 20 C and then used directly in the assay at a 1 to 20 dilution. Assays were either terminated after 10 minutes by heating to 100 C for three minutes, or directly coupled to the phosphatase and L-Galactose dehydrogenase to measure product formation during the assay. Heat terminated assays were cooled on ice, centrifuged to remove precipitated protein and L-Galactose assayed using the coupling enzymes described above (see also (Laing et al., 2004)). Assays for L-Galactose were linear with added L-Galactose-1-Phosphate over the range measured. Backgrounds were run using the empty vector control, which gave the same result as a boiled enzyme control. […]
The applicants used two assays to characterise the enzyme, using two sources of the substrate GDP-L-Galactose. […] The applicants either measured the product formed by adding the coupling enzymes in the assay and measuring the time course of NADH formed, or by stopping the reaction after 10 minutes by boiling for 3 minutes and centrifuging. […]

Molecule: O=C[C@@H](O)[C@@H](O)[C@H](O)[C@H](O)CO [D-Mannose]
- reaction with L-Galactose dehydrogenase [1]: not reacting

Molecule: O=C[C@H](O)[C@@H](O)[C@@H](O)[C@H](O)CO [D-Galactose]
- reaction with L-Galactose dehydrogenase [1]: not reacting

Molecule: O=P(O)(O)OC1[C@@H](O)[C@H](O)C(O)[C@H](O)[C@@H]1O (stereo partly drawn) [L-Myoinositol-1-P]
- % of D-mannose-1P [2]: 126%
- Rate ([2]; N = 6): 0.42 nmoles/sec/ug protein
- dephosphorylation by L-Galactose-1-Phosphate phosphatase [3]: significantly dephosphorylating

B1: At4g26850: GDP-L-Galactose Guanyltransferase, VTC2 from Arabidopsis thaliana (protein, listed as Arabidopsis thaliana)
chain: MLKIKRVPTVVSNYQKDDGAEDPVGCGRNCLGACCLNGARLPLYACKNLVKSGEKLVISHEAIEPPVAFLESLVLGEWEDRFQRGLFRYDVTACETKVIPGKYGFVAQLNEGRHLKKRPTEFRVDKVLQSFDGSKFNFTKVGQEELLFQFEAGEDAQVQFFPCMPIDPENSPSVVAINVSPIEYGHVLLIPRVLDCLPQRIDHKSLLLAVHMAAEAANPYFRLGYNSLGAFATINHLHFQAYYLAMPFPLEKAPTKKITTTVSGVKISELLSYPVRSLLFEGGSSMQELSDTVSDCCVCLQNNNIPFNILISDCGRQIFLMPQCYAEKQALGEVSPEVLETQVNPAVWEISGHMVLKRKEDYEGASEDNAWRLLAEASLSEERFKEVTALAFEAIGCSNQEEDLEGTIVHQQNSSGNVNQKSNRTHGGPITNGTAAECLVLQ
- GDP-L-Galactose Guanyltransferase activity of the expressed enzyme [4]: showed transferase activity
- GDP-L-Galactose Guanyltransferase activity of the expressed enzyme ([4]; listed as At4g26): could catalyse the conversion of GDP-L-Galactose to L-Galactose-1-P
